Results as given in the supplement of paper PMC4932681.

What was measured:
[1] = system: BT-474 Tam1; test: relative IC50 (midpoint of fitted logistic curve, plateau may be below 50% inhibition; CellTiter-Glo viability); higher = less potent; conditions: 4-OH-tamoxifen in medium 1 µM; 72 h
Outline: (§1)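 Breast cancer cell lines and their resistant derivatives were seeded into 384-well plates containing library drugs at five concentrations across a 10 000-fold range, with resistant lines kept in medium with 1 μM of the selecting drug. After 72 h at 37 °C, CellTiter-Glo viability was read on a PHERAstar and normalised to vehicle-only and positive controls. Logistic dose–response fits in the Breeze pipeline gave drug sensitivity score, relative IC50 (curve midpoint) and top-dose inhibition.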

[2] = system: T-47D Tam2; test: as above; conditions: 4-OH-tamoxifen in medium 1 µM; 72 h
Outline: as §1

[3] = system: ZR-75-1 Tam2; test: as above; conditions: 4-OH-tamoxifen in medium 1 µM; 72 h
Outline: as §1

[4] = system: BT-474; test: as above; conditions: 72 h
Outline: as §1

[5] = system: T-47D Tam1; test: as above; conditions: 4-OH-tamoxifen in medium 1 µM; 72 h
Outline: as §1

[6] = system: ZR-75-1; test: as above; conditions: 72 h
Outline: as §1

[7] = system: T-47D; test: as above; conditions: 72 h
Outline: as §1

[8] = system: MCF-7; test: as above; conditions: 72 h
Outline: as §1

[9] = system: BT-474 Tam2; test: as above; conditions: 4-OH-tamoxifen in medium 1 µM; 72 h
Outline: as §1

[10] = system: BT-474 Tam1; test: drug sensitivity score (DSS) (DSS (dimensionless)); higher = more sensitive; extreme values may be limits of the assay; conditions: 4-OH-tamoxifen in medium 1 µM; 72 h
Outline: as §1

[11] = system: T-47D Tam2; test: as above; conditions: 4-OH-tamoxifen in medium 1 µM; 72 h
Outline: as §1

[12] = system: MCF-7 Tam1; test: as above; conditions: 4-OH-tamoxifen in medium 1 µM; 72 h
Outline: as §1

[13] = system: ZR-75-1 Tam2; test: as above; conditions: 4-OH-tamoxifen in medium 1 µM; 72 h
Outline: as §1

[14] = system: BT-474; test: as above; conditions: 72 h
Outline: as §1

[15] = system: ZR-75-1 Tam1; test: as above; conditions: 4-OH-tamoxifen in medium 1 µM; 72 h
Outline: as §1

[16] = system: T-47D Tam1; test: as above; conditions: 4-OH-tamoxifen in medium 1 µM; 72 h
Outline: as §1

[17] = system: ZR-75-1; test: as above; conditions: 72 h
Outline: as §1

[18] = system: T-47D; test: as above; conditions: 72 h
Outline: as §1

[19] = system: MCF-7; test: as above; conditions: 72 h
Outline: as §1

[20] = system: BT-474 Tam2; test: as above; conditions: 4-OH-tamoxifen in medium 1 µM; 72 h
Outline: as §1

[21] = system: ZR-75-1 Tam1; test: relative IC50 (midpoint of fitted logistic curve, plateau may be below 50% inhibition; CellTiter-Glo viability); higher = less potent; conditions: 4-OH-tamoxifen in medium 1 µM; 72 h
Outline: as §1

relative IC50 [1] [µM]	relative IC50 [2] [µM]	relative IC50 ([4]; 4-OH-tamoxifen in medium 0 µM) [µM]	relative IC50 ([4]; 4-OH-tamoxifen in medium 1 µM) [µM]	relative IC50 [5] [µM]	relative IC50 ([7]; 4-OH-tamoxifen in medium 0 µM) [µM]	relative IC50 ([7]; 4-OH-tamoxifen in medium 1 µM) [µM]	relative IC50 ([8]; 4-OH-tamoxifen in medium 0 µM) [µM]	relative IC50 ([8]; 4-OH-tamoxifen in medium 1 µM) [µM]	relative IC50 [9] [µM]	Structure (SMILES)	relative IC50 [3] [µM]	relative IC50 ([6]; 4-OH-tamoxifen in medium 0 µM) [µM]	relative IC50 ([6]; 4-OH-tamoxifen in medium 1 µM) [µM]	drug sensitivity score [10]	drug sensitivity score [11]	drug sensitivity score [12]	drug sensitivity score [13]	drug sensitivity score ([14]; 4-OH-tamoxifen in medium 0 µM)	drug sensitivity score ([14]; 4-OH-tamoxifen in medium 1 µM)	drug sensitivity score [15]	drug sensitivity score [16]	drug sensitivity score ([17]; 4-OH-tamoxifen in medium 0 µM)	drug sensitivity score ([17]; 4-OH-tamoxifen in medium 1 µM)	drug sensitivity score ([18]; 4-OH-tamoxifen in medium 0 µM)	drug sensitivity score ([18]; 4-OH-tamoxifen in medium 1 µM)	drug sensitivity score ([19]; 4-OH-tamoxifen in medium 0 µM)	drug sensitivity score ([19]; 4-OH-tamoxifen in medium 1 µM)	drug sensitivity score [20]	relative IC50 [21] [µM]
0.0209	0.0268	0.00233	0.0119	0.0385	0.00441	0.0881	0.0249	0.0265	0.0142	CC[C@]1(O)C[C@H]2CN(CCc3c([nH]c4ccccc34)[C@@](C(=O)OC)(c3cc4c(cc3OC)N(C=O)[C@H]3[C@@](O)(C(=O)OC)[C@H](OC(C)=O)[C@]5(CC)C=CCN6CC[C@]43[C@@H]65)C2)C1 [Vincristine]	0.116	0.00369	0.0215	30.7	17.3	0.209	8.05	21.4	31.3	7.19	19.3	17.3	10.9	13.8	6.49	19.1	16.8	30.8	–
0.0481	0.0442	0.00377	0.0097	0.0692	0.113	–	0.00994	0.0138	0.0244	CC[C@]1(O)C[C@@H]2CN(CCc3c([nH]c4ccccc34)[C@@](C(=O)OC)(c3cc4c(cc3OC)N(C)[C@H]3[C@@](O)(C(=O)OC)[C@H](OC(C)=O)[C@]5(CC)C=CCN6CC[C@]43[C@@H]65)C2)C1 [Vinblastine]	0.0789	0.00423	0.174	13.1	8.2	0.0008	3.58	13.2	21.5	1.94	6.59	11.9	2.61	2.77	0.561	12.8	12.5	17.1	0.214
–	> 10	> 10	> 10	> 10	> 10	> 10	> 10	> 10	> 10	CS(=O)(=O)c1ccc(C(=O)Nc2ccc(Cl)c(-c3ccccn3)c2)c(Cl)c1 [Vismodegib]	–	> 10	> 10	0.264	0	0	0	0	0	0	0	0	0	0	0	0	0	0	> 10
–	2.66	–	–	3.07	3.04	–	1.75	1.35	–	Nc1nc2[nH]cnc2c(=S)[nH]1 [Thioguanine]	1.44	1.08	2.69	0.758	2.48	1.96	2.86	0.0001	1.03	3.48	2.75	4.81	1.76	1.83	0.681	4.8	4.57	0.61	1.42

More lines, now with the values behind:

Structure (SMILES)	relative IC50 [1] [µM]	relative IC50 [2] [µM]	relative IC50 ([4]; 4-OH-tamoxifen in medium 0 µM) [µM]	relative IC50 ([4]; 4-OH-tamoxifen in medium 1 µM) [µM]	relative IC50 [5] [µM]	relative IC50 ([7]; 4-OH-tamoxifen in medium 0 µM) [µM]	relative IC50 ([7]; 4-OH-tamoxifen in medium 1 µM) [µM]	relative IC50 ([8]; 4-OH-tamoxifen in medium 0 µM) [µM]	relative IC50 ([8]; 4-OH-tamoxifen in medium 1 µM) [µM]	relative IC50 [9] [µM]	relative IC50 [3] [µM]	relative IC50 ([6]; 4-OH-tamoxifen in medium 0 µM) [µM]	relative IC50 ([6]; 4-OH-tamoxifen in medium 1 µM) [µM]	drug sensitivity score [10]	drug sensitivity score [11]	drug sensitivity score [12]	drug sensitivity score [13]	drug sensitivity score ([14]; 4-OH-tamoxifen in medium 0 µM)	drug sensitivity score ([14]; 4-OH-tamoxifen in medium 1 µM)	drug sensitivity score [15]	drug sensitivity score [16]	drug sensitivity score ([17]; 4-OH-tamoxifen in medium 0 µM)	drug sensitivity score ([17]; 4-OH-tamoxifen in medium 1 µM)	drug sensitivity score ([18]; 4-OH-tamoxifen in medium 0 µM)	drug sensitivity score ([18]; 4-OH-tamoxifen in medium 1 µM)	drug sensitivity score ([19]; 4-OH-tamoxifen in medium 0 µM)	drug sensitivity score ([19]; 4-OH-tamoxifen in medium 1 µM)	drug sensitivity score [20]	relative IC50 [21] [µM]
COc1cc(Nc2ncc3c(n2)-c2ccc(Cl)cc2C(c2c(F)cccc2OC)=NC3)ccc1C(=O)O [Alisertib (MLN8237)]	–	0.821	–	3.45	1.05	–	–	–	–	> 10	> 10	> 10	–	0.0274	4.18	0.522	0	0.464	1.48	0	3.59	0	0	3.12	0.856	0.284	0	0	> 10
COc1c(C)cnc(Cn2cnc3c(Cl)nc(N)nc32)c1C [BIIB021]	0.0354	0.284	0.0753	0.049	0.175	0.346	0.359	0.11	0.409	0.0569	0.499	0.477	0.698	22	8.67	2.87	5.51	14.6	22.8	5.21	9.86	4.41	4.44	11.6	9.03	13.9	7.58	22	0.557
CCS(=O)(=O)c1cccc(-c2cc(C(=O)NC3CCN(C)CC3)c(C)c3[nH]c4ncc(C)cc4c23)c1 [TAK-901]	0.371	0.0933	> 1	0.0905	0.138	0.182	–	–	–	–	> 1	> 1	> 1	1.12	2.96	0	0	0	3.36	0	6.67	0	0	3.25	0.53	0.354	2.84	2.87	> 1
O=c1[nH]cc(F)c(=O)[nH]1 [Fluorouracil]	> 10	> 10	> 10	> 10	> 10	–	> 10	1.43	> 10	> 10	–	–	–	0	0	0	3.05	0	0	0	0	1.39	0.596	0.0675	0	2.93	0	0	> 10
